In paper PMC9612005 (Pharmaceutics, 2022):
Several values for one entry are separate records, joined by “and”; a condition that tells them apart may be missing. Equal values may be shown once. Read-outs that look alike come from different tables or passages of the source.

Assays:
cone photoreceptors = assay: µERG a-wave of mouse retinal explants on MEA, photopic (light-adapted) stimulation; assay type: cell-based; settings: for decrease in the a-wave slope vs control / a-wave amplitude / a-wave slope: photopic; for decrease in the a-wave slope vs control: averaged; for decrease in the a-wave slope vs control / cone a-wave responses under photopic stimulation: inhibitor 50 µM, activator 0.1 µM; for a-wave amplitude / a-wave slope: inh 50 µM, act 0.1 µM, mean ±std; for cone a-wave responses under photopic stimulation: ≥+0.5 log
Method: (§1) Further animal experiments were performed using adult postnatal-day (P) 25–30 C57BL/6J mice (n = 12). Animals were housed under standard 12 h white cyclic lighting, had free access to food, water, and playgrounds, and were used irrespective of gender. Animal protocols compliant with §4 of the German law on animal protection were reviewed and approved by the Tübingen University committee on animal protection, and registered on 30 March 2022 under the No. AK05/22M. Moreover, experiments were performed in accordance with the ARVO statement for the use of animals in ophthalmic and visual research. All efforts were made to minimize the number of mice used and their suffering.
(§2) The mice were kept overnight in a ventilated light-tight box for dark-adaption. Subsequent procedures were performed under dim red light. The eyes of the mice were enucleated; then, the retina was isolated in extracellular solution containing (in mM): 125 NaCl, 26 NaHCO3, 2.5 KCl, 2 CaCl2, 1 MgCl2, 1.25 NaH2PO4, and 20 glucose, and was maintained at pH 7.4 using carboxygen perfusion (95/5% O2/CO2). All chemicals were obtained from Merck KGaA (Darmstadt, Germany). For MEA recording, the retinas were placed in the MEA-recording chamber (GC-side down). During the recordings, the tissue was perfused with carboxygenated medium at 32 °C. The chamber perfusion rate was adjusted to 2 mL/min.
(§3) Electrophysiological recordings were performed to assess the light dependent retinal responses (photoreceptors µERG and RGCs spikes) by means of a multi-electrode array system (MEA, USB-MEA60-Up-BC-System-E from Multi Channel Systems, Reutlingen, Germany) equipped with MEA 200/30iR-ITO-pr. The recordings were performed at a 25,000 Hz sampling-rate collecting unfiltered raw data. The trigger-synchronized operation of the light stimulation (LEDD1B T-Cube, Thorlabs) and MEA recording were controlled by the recording protocol set within the MCRack software (v 4.6.2, Multi Channel Systems, Reutlingen, Germany) and the digital I/O box (MCS). The light stimulation (white light LED, 2350 mW, MCWHD3, Thorlabs, Newton, NJ, USA) was applied from beneath the transparent glass MEA, guided by optic fiber and optics. A spectrometer USB4000-UV-VIS-ES (Ocean Optics, Orlando, FL, USA) was employed to calibrate the intensity of the applied light-stimulation protocol. To discriminate the rod and cone photoreceptor responses, a light-stimulation protocol for ex vivo MEA recordings was established following the standard in-vivo ERG protocol. For scotopic recordings (rod responses), the animals were dark-adapted (12 h), while for the photopic recordings (cone responses), the retinal explants were light-adapted on the MEA (5 min at intensity of 4.20 × 10^13 photons/cm^2/s), subsequent to scotopic stimulation. The parameters of the light stimuli were set as: light flash 250 ms long (3 repetition per light intensity, 20 s interval). Scotopic: 10 stimuli in 0.5 log steps from −4.5 to 0.0 (1.33 × 10^9–4.20 × 10^13 photons/cm^2/s). Photopic (background light: 4.20 × 10^13 photons/cm^2/s): four stimuli in 0.5 log steps from +0.5 to +2.0 (1.33 × 10^14–4.20 × 10^15 photons/cm^2/s).
(§4) MEA-recorded raw data files were filtered employing a Butterworth 2nd order filter (MC-Rack, Multi-channel systems) to extract the µERG (field potentials: bandpass 0.01–100 Hz) and spikes (high pass 200 Hz). The filtered data were converted to *.hdf files by MC DataManager (v1.6.1.0, Multi Channel Systems, Reutlingen, Germany) for further data processing in MATLAB [39]. Shown traces data are the average of 30 MEA recording electrodes, per condition. n = 5 retinae were recorded per condition. Statistical significance was estimated by one-way ANOVA followed by the Dunnett´s test for multiple comparisons. […]

rod photoreceptors = assay: µERG a-wave of mouse retinal explants on MEA, scotopic (dark-adapted) stimulation; assay type: cell-based; settings: for photoreceptor (rod) responses under low scotopic light: <−2.0 log; for photoreceptor (rod) responses under low scotopic light / reduction of a-wave amplitudes / decrease in the a-wave slope vs control: inhibitor 50 µM, activator 0.1 µM; for reduction of a-wave amplitudes: higher light intensities (≥−2.0 log); for a-wave amplitude / a-wave slope: inh 50 µM, act 0.1 µM, mean ±std
Method: as §1, §2, §3, §4

[1] = target: T1, rod CNG channels (CNGA1:CNGB1a) (Bos taurus, UniProt Q00194+Q28181); assay: Patch-clamp on inside-out patches, heterotetrameric rod CNG channels expressed in Xenopus laevis oocytes; assay type: cell-based, bovine
T1 construct: expressed in transfected cells; host or cells: Xenopus laevis oocytes (cRNA injection, pGEMHE vector); inside-out patches
T1 sequence (Q00194 whole entry): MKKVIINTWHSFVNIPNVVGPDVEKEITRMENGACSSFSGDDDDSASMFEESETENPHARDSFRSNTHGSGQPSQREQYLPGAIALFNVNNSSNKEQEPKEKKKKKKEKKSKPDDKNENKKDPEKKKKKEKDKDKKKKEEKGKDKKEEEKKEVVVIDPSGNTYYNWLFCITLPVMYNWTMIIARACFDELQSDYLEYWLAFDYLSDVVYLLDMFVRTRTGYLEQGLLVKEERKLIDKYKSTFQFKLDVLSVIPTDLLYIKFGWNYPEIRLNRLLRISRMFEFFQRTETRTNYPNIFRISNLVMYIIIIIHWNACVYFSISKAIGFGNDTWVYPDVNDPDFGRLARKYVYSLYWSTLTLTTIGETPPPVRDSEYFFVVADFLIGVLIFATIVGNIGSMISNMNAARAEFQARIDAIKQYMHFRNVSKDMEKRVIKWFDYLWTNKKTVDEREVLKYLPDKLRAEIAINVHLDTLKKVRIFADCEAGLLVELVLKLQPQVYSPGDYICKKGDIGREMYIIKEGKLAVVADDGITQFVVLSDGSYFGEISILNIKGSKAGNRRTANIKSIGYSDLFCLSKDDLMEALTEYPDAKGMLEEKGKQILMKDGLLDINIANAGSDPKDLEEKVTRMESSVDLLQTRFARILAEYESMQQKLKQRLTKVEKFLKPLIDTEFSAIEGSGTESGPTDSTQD
T1 sequence (Q28181 whole entry): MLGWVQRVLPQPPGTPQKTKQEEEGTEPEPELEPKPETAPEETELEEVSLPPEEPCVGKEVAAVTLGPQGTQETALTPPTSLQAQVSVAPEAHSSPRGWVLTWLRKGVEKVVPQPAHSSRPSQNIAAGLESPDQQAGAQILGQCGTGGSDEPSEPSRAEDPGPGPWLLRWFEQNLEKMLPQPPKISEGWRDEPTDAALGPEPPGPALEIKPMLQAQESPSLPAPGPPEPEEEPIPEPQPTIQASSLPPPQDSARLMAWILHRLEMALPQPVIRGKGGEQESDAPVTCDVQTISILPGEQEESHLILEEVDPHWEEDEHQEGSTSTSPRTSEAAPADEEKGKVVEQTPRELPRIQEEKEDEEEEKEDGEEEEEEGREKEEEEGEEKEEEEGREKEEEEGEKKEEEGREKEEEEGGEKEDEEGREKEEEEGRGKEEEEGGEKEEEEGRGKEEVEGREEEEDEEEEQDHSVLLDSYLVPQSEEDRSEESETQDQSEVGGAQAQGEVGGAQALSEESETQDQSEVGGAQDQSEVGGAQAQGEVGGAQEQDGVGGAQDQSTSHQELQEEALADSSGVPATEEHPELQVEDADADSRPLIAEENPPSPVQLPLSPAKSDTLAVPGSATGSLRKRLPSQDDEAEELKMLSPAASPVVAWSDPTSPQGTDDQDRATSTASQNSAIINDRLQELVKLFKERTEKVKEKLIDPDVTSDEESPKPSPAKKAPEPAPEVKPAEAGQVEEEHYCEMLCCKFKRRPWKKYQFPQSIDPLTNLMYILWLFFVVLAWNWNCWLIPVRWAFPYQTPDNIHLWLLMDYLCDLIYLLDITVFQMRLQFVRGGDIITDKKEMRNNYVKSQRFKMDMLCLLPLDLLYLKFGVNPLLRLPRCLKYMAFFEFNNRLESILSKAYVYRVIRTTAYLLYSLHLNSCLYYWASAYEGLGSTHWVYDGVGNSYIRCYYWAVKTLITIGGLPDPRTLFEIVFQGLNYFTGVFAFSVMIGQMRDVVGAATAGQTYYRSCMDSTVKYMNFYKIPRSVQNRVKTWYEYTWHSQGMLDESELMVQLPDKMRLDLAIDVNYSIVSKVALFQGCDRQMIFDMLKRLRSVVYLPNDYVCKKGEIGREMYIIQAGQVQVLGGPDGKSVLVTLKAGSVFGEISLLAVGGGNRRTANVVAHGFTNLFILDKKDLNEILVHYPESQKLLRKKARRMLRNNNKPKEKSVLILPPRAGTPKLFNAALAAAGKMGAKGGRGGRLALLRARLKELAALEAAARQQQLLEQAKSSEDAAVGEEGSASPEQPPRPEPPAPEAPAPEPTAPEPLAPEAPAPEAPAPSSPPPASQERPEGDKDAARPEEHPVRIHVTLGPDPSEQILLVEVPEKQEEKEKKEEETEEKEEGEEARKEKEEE
From the text: The patch pipettes were pulled from borosilicate glass tubing (outer diameter 2.0 mm, inner diameter 1.0 mm; Hilgenberg GmbH, Malsfeld, Germany). The initial resistance of the solution-filled pipettes was 0.6–1.4 MΩ. […] For studying the activation and deactivation kinetics of CNG channels, we performed fast jumps between different ligand concentrations by means of a double-barreled θ-glass pipette mounted on a piezo-driven device, which was controlled by the computer. For measuring the time courses, the recording rate was 20 kHz. […]

[2] = scotopic, light intensity 0.0 log
[3] = scotopic, light intensity -0.5 log
[4] = scotopic, light intensity -1.0 log
[5] = scotopic, light intensity -1.5 log
[6] = scotopic, light intensity -2.0 log
[7] = scotopic, light intensity -2.5 log
[8] = scotopic, light intensity -3.0 log
[9] = scotopic, light intensity -3.5 log
[10] = scotopic, light intensity -4.0 log
[11] = scotopic, light intensity -4.5 log

| SMILES | decrease in the a-wave slope vs control (cone photoreceptors) | a-wave amplitude (cone photoreceptors; light intensity +0.5 log) [µV] | a-wave slope (cone photoreceptors; light intensity +0.5 log) [µV / 20 ms] | a-wave amplitude (cone photoreceptors; light intensity +1.0 log) [µV] | a-wave slope (cone photoreceptors; light intensity +1.0 log) [µV / 20 ms] | a-wave amplitude (cone photoreceptors; light intensity +1.5 log) [µV] | a-wave slope (cone photoreceptors; light intensity +1.5 log) [µV / 20 ms] | a-wave amplitude (cone photoreceptors; light intensity +2.0 log) [µV] | a-wave slope (cone photoreceptors; light intensity +2.0 log) [µV / 20 ms] | cone a-wave responses under photopic stimulation (cone photoreceptors) | photoreceptor (rod) responses under low scotopic light (rod photoreceptors) | reduction of a-wave amplitudes (rod photoreceptors; scotopic) | a-wave amplitude (rod photoreceptors; [2]) [µV] | a-wave slope (rod photoreceptors; [2]) [µV / 20 ms] | a-wave amplitude (rod photoreceptors; [3]) [µV] | a-wave slope (rod photoreceptors; [3]) [µV / 20 ms] | a-wave amplitude (rod photoreceptors; [4]) [µV] | a-wave slope (rod photoreceptors; [4]) [µV / 20 ms] | a-wave amplitude (rod photoreceptors; [5]) [µV] | a-wave slope (rod photoreceptors; [5]) [µV / 20 ms] | further results |
| --- | --- | --- | --- | --- | --- | --- | --- | --- | --- | --- | --- | --- | --- | --- | --- | --- | --- | --- | --- | --- | --- |
| O=c1c2nc(Br)n([C@@H]3O[C@@H]4CO[P@@](=O)(S)O[C@H]4[C@H]3O)c2nc2[nH]c(-c3ccccc3)cn12 [Rp-8-Br-PET-cGMPS] | ~90% | -1.53± 0.76 | 0.03± 0.02 | -1.98± 0.87 | -0.04± 0.02 | -1.96± 0.89 | -0.05± 0.05 | -2.27± 0.97 | -0.01± 0.01 | the cone a-wave amplitudes showed only minimal increases | essentially abolished photoreceptor responses | ~ 96% | -7.32± 1.37 | -0.15± 0.11 | -4.49± 1.49 | -0.07± 0.04 | -3.62± 1.17 | -0.07± 0.04 | -2.22± 1.40 | -0.03± 0.03 | light intensity at which rod a-wave response was detectable (rod photoreceptors; scotopic): −2.0 log units; a-wave amplitude (rod photoreceptors; [6]): -1.85± 0.71 µV; a-wave slope (rod photoreceptors; [6]): -0.04± 0.03 µV / 20 ms; a-wave amplitude (rod photoreceptors; [7]): 0.00± 0.00 µV; a-wave slope (rod photoreceptors; [7]): -0.05± 0.03 µV / 20 ms; a-wave amplitude (rod photoreceptors; [8]): 0.00± 0.00 µV; a-wave slope (rod photoreceptors; [8]): -0.04± 0.02 µV / 20 ms; a-wave amplitude (rod photoreceptors; [9]): 0.00± 0.00 µV; a-wave slope (rod photoreceptors; [9]): 0.02± 0.02 µV / 20 ms; a-wave amplitude (rod photoreceptors; [10]): 0.00± 0.00 µV; a-wave slope (rod photoreceptors; [10]): -0.02± 0.00 µV / 20 ms; a-wave amplitude (rod photoreceptors; [11]): 0.00± 0.00 µV; a-wave slope (rod photoreceptors; [11]): -0.02± 0.03 µV / 20 ms; decrease in the a-wave slope vs control (rod photoreceptors; scotopic): up to 90%; EC50 [1]: 450 nM; decrease in the apparent affinity of rod CNG channels (increase of cGMP EC50) ([1]; 50 µM analogue): ~ 4.9 fold and ~ 5 fold; H (Hill coefficient), rod CNG channels ([1]; cGMP + 50 µM of the cGMP analogue): 1.90 |
| Nc1nc2c(nc(Sc3ccc(Cl)cc3)n2[C@@H]2O[C@@H]3COP(=O)(O)O[C@H]3[C@H]2O)c(=O)[nH]1 [8-pCPT-cGMP] | ~ 60% | -3.04± 1.68 | -0.04± 0.06 | -7.72± 1.37 | 0.07± 0.22 | -10.79± 1.41 | -0.18± 0.09 | -12.55± 1.72 | -0.23± 0.11 | no effect on cones | rod-responses were essentially absent | 60–80% | -27.81± 6.62 | -0.64± 0.21 | -24.30± 7.17 | -0.39± 0.16 | -18.28± 4.38 | -0.31± 0.09 | -14.14± 3.10 | -0.19± 0.17 | a-wave amplitude (rod photoreceptors; [6]): -11.59± 2.75 µV; a-wave slope (rod photoreceptors; [6]): -0.12± 0.22 µV / 20 ms; a-wave amplitude (rod photoreceptors; [7]): -3.02± 0.74 µV; a-wave slope (rod photoreceptors; [7]): -0.07± 0.01 µV / 20 ms; a-wave amplitude (rod photoreceptors; [8]): 0.04± 0.05 µV; a-wave slope (rod photoreceptors; [8]): 0.09± 0.15 µV / 20 ms; a-wave amplitude (rod photoreceptors; [9]): 0.00± 0.00 µV; a-wave slope (rod photoreceptors; [9]): -0.04± 0.08 µV / 20 ms; a-wave amplitude (rod photoreceptors; [10]): 0.00± 0.00 µV; a-wave slope (rod photoreceptors; [10]): 0.02± 0.01 µV / 20 ms; a-wave amplitude (rod photoreceptors; [11]): 0.00± 0.00 µV; a-wave slope (rod photoreceptors; [11]): 0.11± 0.10 µV / 20 ms; decrease in the a-wave slope vs control (rod photoreceptors; scotopic): ~ 85%; effect on rod channels ([1]; 0.1 µM): almost no effect on rod channels; potency compared to cGMP, rod channel ([1]; higher potency than cGMP): ~ 63 times; H (Hill coefficient), rod CNG channels ([1]; ligand alone): 2.2; EC50 ([1]; ligand alone, concentration-activation relationship, Hill fit, read-out: EC50, rod CNG channels): 630 nM |
